In patent US9604998B2, “Inhibitors of the renal outer medullary potassium channel” (MERCK SHARP & DOHME CORP., priority 2013, dated 2017) one finds IC50 data, which are given here for 25 compounds.

pIC50: −log10 of the molar value. Where a name gives a salt, the structure may show the parent alone. Read-outs that look alike come from different tables or passages of the source.

As usually defined, the pIC50 is the negative decadic logarithm of the IC50, by convention in mol/L.

One test deals with hROMK (hKir1.1) (Homo sapiens (Human), UniProt P48048). Put plainly: Thallium Flux Assay (ROMK channel functional thallium flux, FLIPR-Tetra). The class given is cell-based. The method, then: HEK293 cells stably expressing hROMK (hKir1.1) were grown at 37° C. in a 10% CO2 humidified incubator in complete growth media: Dulbecco's Modified Eagle Medium supplemented with non-essential amino acids, Penicillin/Streptomycin/Glutamine, G418 and FBS. At >80% confluency, aspirate the media from the flask and rinse with 10 mL Calcium/Magnesium-free PBS. […] To dislodge the cell, gently bang the side of the flask with your hand. Triturate the cells completely and then transfer the cells to 25 mL complete media. Centrifuge at 1,500 rpm for 6 min followed by resuspension in complete growth media and determine cell concentration.
hROMK (hKir1.1), sequence (P48048 whole entry): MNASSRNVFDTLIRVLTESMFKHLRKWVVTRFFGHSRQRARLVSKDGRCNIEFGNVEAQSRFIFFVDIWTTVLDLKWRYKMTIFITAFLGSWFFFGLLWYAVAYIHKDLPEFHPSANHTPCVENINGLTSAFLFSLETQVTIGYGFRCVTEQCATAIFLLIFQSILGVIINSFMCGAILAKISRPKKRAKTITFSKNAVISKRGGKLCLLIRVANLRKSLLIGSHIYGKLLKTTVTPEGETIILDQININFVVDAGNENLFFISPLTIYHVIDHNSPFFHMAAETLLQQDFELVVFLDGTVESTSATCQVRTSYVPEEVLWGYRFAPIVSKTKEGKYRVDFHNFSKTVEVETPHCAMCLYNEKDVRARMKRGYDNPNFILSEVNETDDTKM
Compound Buffer (per microplate): 20 mL Probenecid/Assay Buffer; 0.3 mM ouabain (10 mM ouabain in water can be stored in amber bottle/aluminum foil at room temperature); Test compound
Stimulant Buffer (prepared at 5× final concentration in 1× FluxOR™ Chloride-Free Buffer): 7.5 mM Thallium sulfate and […] (to give a final assay concentration of 3 mM Thallium/0.3 mM Potassium). Store at 4° C. when not in use. If kept sterile, this solution is good for months.
The ROMK channel functional thallium flux assay is performed in 384 wells, using the FLIPR-Tetra instrument. HEK-hKir1.1 cells are seeded in Poly-D-Lysine microplates and kept in a 37° C.-10% CO2 incubator overnight. On the day of the experiment, the growth media is replaced with the FluxOR™ reagent loading buffer and incubated, protected from light, at ambient temperature (23-25° C.) for 90 min. The loading buffer is replaced with assay buffer±test compound followed by 30 min incubation at ambient temperature, where the Thallium/Potassium stimulant is added to the microplate.
1. Seed HEK-hKir1.1 cells (50 μl at 20,000 cells/well) in 384-well PDL coated Microplates
2. Allow cells to adhere overnight in humidified 37° C./10% CO2 incubator
3. Completely remove cell growth media from microplate and replace with 25 μl loading buffer
4. Incubate Microplate at room temperature, protected form light, for 90 min
5. Remove loading buffer and replace with 25 μl 1× Assay Buffer±test compound.
6. Incubate microplate at room temperature, protected from light, for 30 min
7. […] Excitation=400 nm, Emission=460 & 580 nm. Collect data for ˜10 min.
The fluorescence intensity of wells containing 3 μM of a standard control ROMK inhibitor of the present invention is used to define the ROMK-sensitive component of thallium flux. Fluorescence in the presence of test compounds is normalized to control values to provide % fluorescence change.

A further test concerns the target Kir1.1 (ROMK1) (Homo sapiens (Human), UniProt P48048). Nature of the test: Electrophysiology Assay (whole cell voltage clamp, IonWorks Quattro). Particulars: block during voltage step to 0 mV. The class given is cell-based. How it is done: Chinese hamster ovary cells stably expressing Kir1.1 channels were maintained in T-75 flasks in cell culture media in a humidified 10% CO2 incubator at 37° C. Prior to an experiment, Kir1.1 expression was induced by overnight incubation with 1 mM sodium butyrate. […] After centrifugation, the cell pellet was resuspended in approximately 4.0 mL of bath solution and placed in the IonWorks instrument. The intracellular solution consisted of (in mM): 80 K gluconate, 40 KCl, 20 KF, 3.2 MgCl2, 3 EGTA, 5 Hepes, pH 7.4. Electrical access to the cytoplasm was achieved by perforation in 0.13 mg/mL amphotericin B for 4 min. […] Voltage protocols and current recordings were performed using the IonWorks HT software/hardware system. Currents were sampled at 1 kHz. No correction for liquid junction potentials was used. The test pulse, consisting of a 100 ms step to 0 mV from a holding potential of −70 mV, followed by a 100 ms voltage ramp from −70 mV to +70 mV, was applied before and after a 6 min compound incubation period. Test compounds were prepared by diluting DMSO stock solutions into the bath solution at 3× the final concentration and placed in the instrument in 96-well polypropylene plates. Current amplitudes were measured using the IonWorks software.
In general terms: In patch-clamp work, channel activity is measured electrically.

[1] abbreviates: Thallium Flux IC50, HEK293 cells stably expressing hROMK (hKir1.1).
[2] abbreviates: Electrophysiology IC50, Chinese hamster ovary cells stably expressing Kir1.1.
Setting [3] is: HEK293 cells stably expressing hROMK (hKir1.1), read-out: Thallium Flux IC50.
The mark [4] stands for this setting: Chinese hamster ovary cells stably expressing Kir1.1, read-out: Electrophysiology IC50.

Kir1.1 (ROMK1), sequence (P48048 whole entry, species assumed): as the sequence (P48048 whole entry) above

As to `Cc1cc2c(cc1C(O)CN1CCN3C[C@H](c4ccc(F)c(C#N)c4C)OC[C@@H]3C1)COC2=O` (single isomer, unassigned) [Example 27, trifluoroacetate], the negative logarithm of the IC50 (pIC50) against hROMK (hKir1.1) (setting [1]) was 6.51; at Kir1.1 (ROMK1) (setting [2]) it was 6.62.
As to `Cc1c([C@@H](O)CN2CCN3C[C@@H](c4ccc(C#N)c(F)c4)OC[C@H]3C2)ccc2c1COC2=O` [Example 29, (3R,9aR)-3-(4-cyano-3-fluorophenyl)-8-[(2R)-2-hydroxy-2-(4-methyl-1-oxo-1,3-dihydro-2-benzofuran-5-yl)ethyl]octahydropyrazino[2,1-c][1,4]oxazin-8-ium chloride], the pIC50 was 6.31 at hROMK (hKir1.1) (setting [3]) and 7.10 on Kir1.1 (ROMK1) (setting [4]).
Turning to `COc1cc(C(O)CN2CCN3C[C@@H](c4ccc5c(c4C)COC5=O)OC[C@@H]3C2)cc(F)c1C#N` (single isomer, unassigned) [Example 54], the pIC50 on hROMK (hKir1.1) (setting [3]) is 6.47; at Kir1.1 (ROMK1) (setting [4]), 6.77.
Consider `COc1c(C#N)ccc(CCN2CCN3C[C@@H](c4ccc5c(c4C)COC5=O)OC[C@@H]3C2)c1C` [Example 82], for which the pIC50 on hROMK (hKir1.1) (setting [3]) is 7.22; on Kir1.1 (ROMK1) (setting [4]), 7.10.
For the compound `Cc1c([C@@H]2CN3CCN(CC(O)c4cccc(-n5cnnn5)c4)C[C@@H]3CO2)ccc(F)c1C#N` (single isomer, unassigned) [Example 22], the pIC50 is 6.51 on hROMK (hKir1.1) (setting [3]) and 6.36 on Kir1.1 (ROMK1) (setting [4]).
Consider `Cc1cc2c(cc1C(O)CN1CCN3C[C@@H](c4ccc(F)c(C#N)c4C)OC[C@@H]3C1)COC2=O` (single isomer, unassigned) [Example 24, trifluoroacetate], for which the figures for the pIC50 against hROMK (hKir1.1) (setting [1]) and against Kir1.1 (ROMK1) (setting [2]) were 6.35 and 6.62, respectively.
For `Cc1c([C@@H](O)CN2CCN3C[C@H](c4ccc5c(c4C)COC5=O)SC[C@@H]3C2)ccc2c1COC2=O` [Example 55, 5-{(3S,9aS)-8-[(2R)-2-hydroxy-2-(4-methyl-1-oxo-1,3-dihydro-2-bcnzofuran-5-yl)ethyl]octahydropyrazino[2,1-c][1,4]thiazin-3-yl}-4-methyl-2-benzofuran-1(3H)-one], the pIC50 on hROMK (hKir1.1) (setting [3]) is 6.48; at Kir1.1 (ROMK1) (setting [4]), 7.05.
As to `Cc1cc(-n2cnnn2)ncc1C(O)CN1CCN2C[C@@H](c3ccc(F)c(C#N)c3C)OC[C@@H]2C1` (single isomer, unassigned) [Example 20], the negative logarithm of the IC50 (pIC50) on hROMK (hKir1.1) (setting [3]) was 6.52; at Kir1.1 (ROMK1) (setting [2]), 6.62.
`COc1cc(C(O)CN2CCN3C[C@@H](c4ccc5c(c4C)COC5=O)OC[C@@H]3C2)c(F)cc1C#N` (stereo partly drawn) [Example 15, (3R,9aS)-8-[2-(4-cyano-2-fluoro-5-methoxyphenyl)-2-hydroxyethyl]-3-(4-methyl-1-oxo-1,3-dihydro-2-benzofuran-5-yl)octahydropyrazino[2,1-c][1,4]oxazin-5-ium chloride]: the negative-log IC50 (pIC50) is 6.17 at hROMK (hKir1.1) (setting [3]) and 6.54 at Kir1.1 (ROMK1) (setting [4]).
The matching figures for `Cc1c([C@H]2CN3CCN(CC(O)c4ccc(-n5cnnn5)nc4)C[C@H]3CO2)ccc(F)c1C#N` (single isomer, unassigned) [Example 17]: 6.07 and 6.82.
In the same order, the values of `Cc1c([C@@H]2CN3CCN(CCc4ccc5c(c4C)COC5=O)C[C@H]3CO2)ccc(F)c1C#N` [Example 80] are 7.22 and 7.30.
The matching figures for `Cc1c([C@@H]2CN3CCN(CC(O)c4ccc(-n5cnnn5)nc4)C[C@H]3CO2)ccc(F)c1C#N` (single isomer, unassigned) [Example 16]: 6.25 and 7.10.
Take `Cc1c([C@@H]2CN3CCN(CC(O)c4ccc5c(c4)C[C@@H](C)OC5=O)C[C@H]3CO2)ccc2c1COC2=O` (single isomer, unassigned) [Example 46]: the values for the pIC50 on hROMK (hKir1.1) (setting [3]) and on Kir1.1 (ROMK1) (setting [4]) were 6.55 and 6.96, respectively.
In the same order, the values of `Cc1c([C@H](O)CN2CCN3C[C@@H](c4ccc5c(c4C)COC5=O)OC[C@@H]3C2)ccc2c1COC2=O` [Example 2, 5-((S)-1-hydroxy-2-((3R,9aS)-3-(4-methyl-1-oxo-1,3-dihydroisobenzofuran-5-yl)hexahydropyrazino[2,1-c][1,4]oxazin-8(1H)-yl)ethyl)-4-methylisobenzofuran-1(3H)-one] are 6.64 and 7.10.
With `Cc1c(CCN2CCN3C[C@@H](c4ccc(F)c(C#N)c4)OC[C@@H]3C2)ccc2c1COC2=O` [Example 72], the pIC50 at hROMK (hKir1.1) (setting [3]) is 6.82; on Kir1.1 (ROMK1) (setting [4]), 6.80.
For `COc1cc([C@H]2CN3CCN(CCc4ccc5c(c4C)COC5=O)C[C@@H]3CO2)ccc1C#N` [Example 75], the negative logarithm of the IC50 (pIC50) at hROMK (hKir1.1) (setting [3]) is 6.96; on Kir1.1 (ROMK1) (setting [4]), 7.15.
In the same order, the values of `Cc1cc2c(cc1C(O)CN1CCN3C[C@@H](c4ccc5c(c4C)COC5=O)OC[C@@H]3C1)COC2=O` (single isomer, unassigned) [Example 43] are 6.68 and 6.89.
In the same order, the values of `Cc1c([C@@H]2CN3CCN(CCc4ccc5c(c4)COC5=O)C[C@@H]3CN2)ccc(F)c1C#N` [Example 105] are 6.54 and 6.82.
In the same order, the values of `Cc1c([C@@H](O)CN2CCN3C[C@H](c4ccc(C#N)c(F)c4)OC[C@H]3C2)ccc2c1COC2=O` [Example 28, (3S,9aR)-3-(4-cyano-3-fluorophenyl)-8-[(2R)-2-hydroxy-2-(4-methyl-1-oxo-1,3-dihydro-2-benzofuran-5-yl)ethyl]octahydropyrazino[2,1-c][1,4]oxazin-8-ium chloride] are 6.72 and 7.05.
As for `COc1cc([C@H]2CN3CCN(C[C@H](O)c4ccc5c(c4C)COC5=O)C[C@@H]3CO2)ccc1C#N` [Example 1, 4-{(3S,9aR)-8-[(2R)-2-hydroxy-2-(4-methyl-1-oxo-1,3-dihydro-2-benzofuran-5-yl)ethyl]octahydropyrazino[2,1-c][1,4]oxazin-3-yl}-2-methoxybenzonitrile], the negative-log IC50 (pIC50) on hROMK (hKir1.1) (setting [3]) is 6.66; at Kir1.1 (ROMK1) (setting [4]), 6.96.
Consider `CCOc1cc(CCN2CCN3C[C@@H](c4ccc5c(c4C)COC5=O)OC[C@@H]3C2)ccc1C#N` [Example 83], for which the negative logarithm of the IC50 (pIC50) was 6.92 at hROMK (hKir1.1) (setting [3]) and 7.05 on Kir1.1 (ROMK1) (setting [4]).
In the same order, the values of `COc1cc([C@H]2CN3CCN(CC(O)c4ccc5c(c4C)COC5=O)C[C@H]3CO2)ccc1C#N` (stereo partly drawn) [Example 4, (3S,9aS)-3-(4-cyano-3-methoxyphenyl)-8-[2-hydroxy-2-(4-methyl-1-oxo-1,3-dihydro-2-benzofuran-5-yl)ethyl]octahydropyrazino[2,1-c][1,4]oxazin-5-ium chloride] are 6.37 and 7.10.
In the same order, the values of `Cc1c(CCN2CCN3C[C@H](c4ccc5c(c4)COC5=O)OC[C@@H]3C2)ccc2c1COC2=O` [Example 70] are 6.92 and 7.52.
The matching figures for `Cc1c([C@H]2CN3CCN(CCc4ccc5c(c4)COC5=O)C[C@H]3CO2)ccc2c1COC2=O` [Example 65]: 6.77 and 6.96.
With `Cc1c([C@H]2CN3CCN(CC(O)c4ccc(-n5cnnn5)nc4)C[C@H]3CO2)ccc(F)c1C#N` (single isomer, unassigned) [Example 18], the pIC50 at hROMK (hKir1.1) (setting [3]) is 6.54; at Kir1.1 (ROMK1) (setting [4]), 7.00.
